Measurements taken from US12440489B2 (priority 2016, dated 2025).

Key:
5-HT2 receptor = test system: 5-HT2 receptor; parameters: species or system mice; settings: mouse, in vivo; for block of DOI head twitch (in words): po
[1] = test system: TH (tyrosine hydroxylase); assay: CNS phosphoprotein profile, tyrosine hydroxylase phosphorylation at Ser40 in nucleus accumbens; format: in vivo, mice; settings: mouse nucleus accumbens; for effect on tyrosine hydroxylase phosphorylation at Ser40 (in words): 3 mg/kg, 30 minutes or 60 minutes; for increase in TH phosphorylation: haloperidol 2 mg/kg, risperidone dose not given
Method: (§1) A comprehensive molecular phosphorylation study is also carried out to examine the central nervous system (CNS) profile of the compounds of Example 1 and Example 3. The extent of protein phosphorylation for selected key central nervous system proteins is measured in mice nucleus accumbens.
(§2) Mice were killed 30 minutes to 2 hours post-injection by focused microwave cranial irradiation, which preserves brain phosphoprotein as it exists at the time of death. Nucleus accumbens was then dissected from each mouse brain, sliced and frozen in liquid nitrogen. Samples were further prepared for phosphoprotein analysis via SDS-PAGE electrophoresis followed by phosphoprotein-specific immunoblotting, as described in Zhu H, et al., Brain Res. 2010 Jun 25; 1342:11-23. Phosphorylation at each site was quantified, normalized to total levels of the protein (non-phosphorylated), and expressed as percent of the level of phosphorylation in vehicle-treated control mice.

ERK2 = assay: CNS phosphoprotein profile, ERK2 phosphorylation at Thr183 and Tyr185 in nucleus accumbens; format: in vivo, mice; settings: 3 mg/kg; mouse nucleus accumbens
Method: as §1, §2

NR2B = assay: CNS phosphoprotein profile, NR2B phosphorylation at Tyr1472 in nucleus accumbens; format: in vivo, mice; settings: 3 mg/kg; 30-60 minutes; mouse nucleus accumbens
Method: as §1, §2

GluR1 = assay: CNS phosphoprotein profile, GluR1 phosphorylation at Ser845 in nucleus accumbens; format: in vivo, mice; settings: 3 mg/kg; mouse nucleus accumbens
Method: as §1, §2

Mice = assay: Mouse marble-burying study (OCD model); format: in vivo; settings: for Marbles Buried: of 15 marbles, 30 min
Description: The marble burying test is used to measure repetitive and anxiety-related behavior in rodents. It is based on the observation that rats and mice will bury either harmful or harmless objects in their bedding, and it has been used as an animal model to measure the effect of pharmacological interventions in treatment of repetitive behavior disorders, such as OCD.
MPEP is a selective mGluR5 glutamate receptor antagonist. […] Mice in groups (1) are orally administered the vehicle, and mice in group (4) are given an intraperitoneal injection of MPEP just prior to the start of the test.
The test is conducted in rectangular cages with 4-5 cm of wood chip bedding in a room with the window shades lowered and the door closed to minimize distractions. Fifteen clean marbles are evenly spaced on top of the bedding in three rows of five marbles. One mouse is placed in each cage. The mouse and cage is left undisturbed for 30 minutes. At the end of the test, the mouse is removed and the number of marbles buried to at least ⅔ of their depth is counted.

Mu opiate receptor = Mu opiate receptor (Homo sapiens, UniProt P35372); format: binding
Sequence of Mu opiate receptor (P35372 whole entry): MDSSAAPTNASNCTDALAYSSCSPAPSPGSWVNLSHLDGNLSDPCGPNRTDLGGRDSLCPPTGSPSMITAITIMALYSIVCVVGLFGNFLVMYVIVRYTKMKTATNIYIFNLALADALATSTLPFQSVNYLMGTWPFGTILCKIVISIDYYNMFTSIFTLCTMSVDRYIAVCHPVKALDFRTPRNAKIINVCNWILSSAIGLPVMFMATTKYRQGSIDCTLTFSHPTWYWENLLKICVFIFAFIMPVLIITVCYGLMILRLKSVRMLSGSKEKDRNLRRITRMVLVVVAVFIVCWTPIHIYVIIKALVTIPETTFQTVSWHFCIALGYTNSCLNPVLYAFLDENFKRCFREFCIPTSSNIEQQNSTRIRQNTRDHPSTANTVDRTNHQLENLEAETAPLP

For O=C1CN2c3c(cccc3[C@@H]3CN(CCCC(=O)c4ccc(F)cc4)CC[C@@H]32)N1 [Example 1, 4-((6bR,10aS)-2-Oxo-2,3,6b,9,10,10a-Hexahydro-1H,7H-Pyrido[3′,4′:4,5]Pyrrolo[1,2,3-De]Quinoxalin-8-Yl)-1-(4-Fluoro-Phenyl)-Butan-1-One], the “EC50 for reducing DOI-induced head twitches” value (5-HT2 receptor) was 0.23 mg/kg, p.o, the “block of DOI head twitch (in words)” value (5-HT2 receptor) was “potently block DOI head twitch” and the “effect on tyrosine hydroxylase phosphorylation at Ser40 (in words)” value [1] was “neither the compound of Example 1 nor of Example 3 has a significant effect”. For the same compound, the “effect on ERK2 phosphorylation at Thr183 and Tyr185 (in words)” value (ERK2) was “slight decrease”, the “effect on NR2B phosphorylation at Tyr1472 (in words)” value (NR2B) was “neither the compound of Example 1 nor of Example 3 has a significant effect” and the “effect on GluR1 phosphorylation at Ser845 (in words)” value (GluR1) was “slight increase”.

For O=C1CN2c3c(cccc3[C@@H]3CN(CCCOc4ccc(F)cc4)CC[C@@H]32)N1 [Example 3, (6bR,10aS)-8-(3-(4-Fluorophenoxy)Propyl)-6b,7,8,9,10,10a-Hexahydro-1H-Pyrido[3′,4′:4,5]Pyrrolo[1,2,3-De]Quinoxalin-2(3H)-One], the “EC50 for reducing DOI-induced head twitches” value (5-HT2 receptor) was 0.44 mg/kg, p.o, the “block of DOI head twitch (in words)” value (5-HT2 receptor) was “potently block DOI head twitch” and the “effect on tyrosine hydroxylase phosphorylation at Ser40 (in words)” value [1] was “neither the compound of Example 1 nor of Example 3 has a significant effect”. The “effect on ERK2 phosphorylation at Thr183 and Tyr185 (in words)” value (ERK2) was “slight decrease”, the “Marbles Buried” value (Mice; 0.3 mg/kg orally 30 minutes prior to the test) was 9.3 and the “decrease in marble burying compared to the control (in words)” value (Mice; 0.3 mg/kg, p <0.01) was “statistically significant decrease”. The “effect on NR2B phosphorylation at Tyr1472 (in words)” value (NR2B) was “neither the compound of Example 1 nor of Example 3 has a significant effect” and the “effect on GluR1 phosphorylation at Ser845 (in words)” value (GluR1) was “slight increase”.

With CN1CCN2c3c(cccc31)[C@@H]1CN(CCCC(=O)c3ccc(F)cc3)CC[C@@H]12 [Formula A, reference compound] the “activity at the Mu opiate receptor (in words)” value (Mu opiate receptor) was “not active”.

CN1CCN2c3c(cccc31)[C@@H]1CN(CCCC(O)c3ccc(F)cc3)CC[C@@H]12 (stereo partly shown) [Formula B, reference compound] was tested, and the “EC50 for reducing DOI-induced head twitches” value (5-HT2 receptor) was 0.31 mg/kg, p.o.

With Cc1cccc(C#Cc2ccccc2)n1 [MPEP, 2-methyl-6-(phenylethynyl)pyridine, reference compound] the “Marbles Buried” value (Mice; 20 mg/kg intraperitoneal just prior to the test) was 0.2.

O=C(CCCN1CCC(O)(c2ccc(Cl)cc2)CC1)c1ccc(F)cc1 [haloperidol, reference compound] was tested, and the “increase in TH phosphorylation” value [1] was “greater than 400%”.

With Cc1nc2n(c(=O)c1CCN1CCC(c3noc4cc(F)ccc34)CC1)CCCC2 [risperidone, reference compound] the “increase in TH phosphorylation” value [1] was “greater than 500%”.
